Assay results from PubChem BioAssay (NCI).
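Compound exposure: 48 hours, 5 concentrations, 96-well plates. Definition used: TGI = concentration required for complete inhibition of growth.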

Legend:
Assay in all cases: inhibition of tumour cell growth, NCI panel, 48 h
[1] = tested on: A498 renal
[2] = tested on: ACHN renal
[3] = tested on: COLO 205 colon
[4] = tested on: HCC-2998 colon
[5] = tested on: HCT-116 colon
[6] = tested on: HCT-15 colon
[7] = tested on: HOP-62 NSCLC
[8] = tested on: HT29 colon
[9] = tested on: IGROV1 ovarian
[10] = tested on: KM12 colon
[11] = tested on: MALME-3M melanoma
[12] = tested on: MOLT-4 leukemia
[13] = tested on: NCI-H460 lung
[14] = tested on: NCI/ADR-RES ovarian
[15] = tested on: OVCAR-8 ovarian
[16] = tested on: SK-MEL-2 melanoma
[17] = tested on: SN12C renal
[18] = tested on: T-47D breast
[19] = tested on: TK-10 renal
[20] = tested on: UACC-62 melanoma

SMILES | TGI [1] | TGI [2] | TGI [3] | TGI [4] | TGI [5] | TGI [6] | TGI [7] | TGI [8] | TGI [9] | TGI [10] | TGI [11] | TGI [12] | TGI [13] | TGI [14] | TGI [15] | TGI [16] | TGI [17] | TGI [18] | TGI [19] | TGI [20]
O=C(NCCCCCCNC(=O)c1cccc2ccccc12)Nc1cccc2ccccc12 | > 100 µM | > 100 µM | > 100 µM | > 100 µM | > 100 µM | > 100 µM | > 100 µM | > 100 µM | > 100 µM | > 100 µM | > 100 µM | > 100 µM | > 100 µM | > 100 µM | > 100 µM | > 100 µM | > 100 µM | > 100 µM | > 100 µM | > 100 µM
CC(C)(C)c1cc(C(P(=O)(c2ccccc2)c2ccccc2)P(=O)(c2ccccc2)c2ccccc2)cc(C(C)(C)C)c1O | 5.08 µM | > 10 µM | 3.31 µM | 4.45 µM | 3.23 µM | 6.96 µM | 5.13 µM | 4.39 µM | 5.74 µM | 3.37 µM | 6.38 µM | > 8.09 µM | 4.44 µM | 6.16 µM | 8.95 µM | 3.88 µM | > 9.06 µM | > 10 µM | 9.87 µM | 3.32 µM
O=C1N=c2ccccc2=C1c1c(O)[nH]c2ccccc12 | 64.3 µM | 37.1 µM | > 100 µM | 63.5 µM | 88.3 µM | 19.6 µM | > 100 µM | 17.8 µM | > 100 µM | > 100 µM | 35.5 µM | > 100 µM | 59.3 µM | 48.2 µM | 66.7 µM | 58.9 µM | 51.5 µM | 3.77 µM | 72.7 µM | 39.2 µM
O=c1[nH]c(-c2ccc3ccccc3c2)nc2ccccc12 | > 100 µM | 80.2 µM | > 100 µM | > 100 µM | > 100 µM | > 100 µM | 50.2 µM | > 100 µM | > 100 µM | > 100 µM | > 100 µM | > 100 µM | > 100 µM | > 100 µM | 54.4 µM | > 100 µM | > 100 µM | > 100 µM | 13.4 µM | > 100 µM
CCN(CC)c1c(N(CC)CC)c(=O)c1=O | 58.1 µM | 21.1 µM | 8.24 µM | 39.9 µM | 20.8 µM | 17 µM | > 77.3 µM | 5.96 µM | 8.01 µM | 48.4 µM | 13.2 µM | 16.4 µM | > 78.2 µM | 61.2 µM | 27.6 µM | 66.9 µM | 24 µM | 10.4 µM | 8.7 µM | 45.7 µM
C=C1CC(c2ccc(OCCCN3C(=O)c4ccccc4C3=O)c(OC)c2)OC1=O (stereo not given) | 6.83 µM | 18.7 µM | 5.33 µM | 27.7 µM | 6.6 µM | 18.6 µM | 30.6 µM | 13.3 µM | 8.41 µM | 28.2 µM | 12.4 µM | 2.72 µM | 14.5 µM | > 100 µM | 15.1 µM | 18.4 µM | 25.4 µM | 9.96 µM | 10.8 µM | 10.2 µM
COc1ccc2nc3ccc(OC)cc3c(S(=O)CCCl)c2c1 (stereo not given) | 34 µM | 3.62 µM | 3.13 µM | 46.7 µM | 3.39 µM | > 20.6 µM | 36.8 µM | 4.39 µM | 6.87 µM | 37.3 µM | 3.57 µM | > 20.7 µM | > 63.7 µM | 36.8 µM | 9.2 µM | 35.3 µM | 3.72 µM | 5.62 µM | 8.26 µM | 32.1 µM
C[C@]12CC[C@H](O)CC1=CC[C@@H]1[C@@H]2CC[C@]2(C)C(=O)[C@@H](N3CCOCC3)C[C@@H]12 | > 100 µM | > 100 µM | > 100 µM | > 100 µM | > 100 µM | > 100 µM | > 100 µM | > 100 µM | > 100 µM | > 100 µM | > 100 µM | > 100 µM | > 100 µM | > 100 µM | > 100 µM | > 100 µM | > 100 µM | > 100 µM | > 100 µM | > 100 µM
C=CCNC1=C2C[C@@H](C)C[C@@H](OC)[C@H](OC(=O)CCCCN)[C@H](C)/C=C(\C)[C@@H](OC(N)=O)[C@H](OC)/C=C\C=C(/C)C(=O)NC(=CC1=O)C2=O | 25.9 µM | 34 µM | 16.6 µM | 13.6 µM | 28 µM | 34.1 µM | 18.5 µM | 14.8 µM | 28.6 µM | 18 µM | 19.6 µM | 52.9 µM | 26 µM | > 100 µM | 37.3 µM | 9.98 µM | 27.1 µM | 29.9 µM | 29 µM | 27.7 µM
COc1ccc(CC2c3cc(Oc4cc(CC5c6cc(OC)c(OC)cc6CCN5C)ccc4O)c(OC)cc3CCN2C)cc1 (stereo not given) | 14.8 µM | 13.5 µM | 14.7 µM | 2.64 µM | 4.6 µM | 4.6 µM | 14.9 µM | 8.15 µM | 16.2 µM | 5.33 µM | 17.6 µM | 12.9 µM | 14.1 µM | 14.4 µM | 13.4 µM | 15.6 µM | 14.8 µM | 12.8 µM | 11 µM | 15.6 µM
COc1ccc(/C=C(/C(=O)c2ccc(Cl)cc2)N2C=CC=CC2=C(C#N)C#N)cc1OC | 30.5 µM | 11.9 µM | 3.32 µM | 4.2 µM | 5.41 µM | 6.19 µM | 51.1 µM | 13.1 µM | 14.9 µM | 42.1 µM | 2.91 µM | 4.64 µM | 25.5 µM | 44.9 µM | 16.1 µM | 29.7 µM | 47.7 µM | 29.4 µM | 17.8 µM | 28.2 µM
CCC1(CC)SCc2nc3ccccc3n21 | > 100 µM | > 100 µM | 40.2 µM | > 100 µM | 73.4 µM | > 100 µM | > 100 µM | > 100 µM | > 100 µM | 61.5 µM | 94.8 µM | 84.3 µM | > 100 µM | 86 µM | > 100 µM | 85.3 µM | > 100 µM | > 100 µM | > 100 µM | > 100 µM
Oc1ccc2ccccc2c1/C=C/c1ccc2c(Br)cc(Br)c(O)c2n1 | 18.6 µM | 18.1 µM | 21.9 µM | 23.4 µM | 11.4 µM | 17.5 µM | 34.5 µM | 41.4 µM | 32.5 µM | 30.9 µM | 32 µM | 15.4 µM | 16.2 µM | 12.9 µM | 20.1 µM | 29.7 µM | 20.9 µM | 35.4 µM | 23.2 µM | 24.2 µM
NS(=O)(=O)c1nn2c(Br)c(-c3ccccc3)nc2s1 | 31 µM | 15.2 µM | 18.4 µM | 16.7 µM | 7.3 µM | 11.6 µM | 29.5 µM | 8.4 µM | 23.3 µM | 21.3 µM | 13.7 µM | 5.67 µM | 19.3 µM | 12.6 µM | 7.89 µM | 16.9 µM | 7.94 µM | 12.2 µM | 17.7 µM | 15.4 µM
CCOC(=O)C1=C(C)N(C)C23OC4(C(=O)OC)CC2c2ccccc2C1N3C4=O (stereo not given) | > 100 µM | > 100 µM | > 100 µM | > 100 µM | > 100 µM | > 100 µM | > 100 µM | > 100 µM | > 100 µM | > 100 µM | > 100 µM | > 100 µM | > 100 µM | > 100 µM | > 100 µM | > 100 µM | > 100 µM | > 100 µM | > 100 µM | > 100 µM
O=[N+]([O-])c1cc2oc(COc3ccccc3)nc2cc1Cl | 53 µM | > 100 µM | 36.6 µM | 43.3 µM | 44.9 µM | 43.3 µM | 50.6 µM | > 100 µM | > 100 µM | 51.3 µM | 94.5 µM | > 100 µM | 53.6 µM | 61.2 µM | > 100 µM | 44.2 µM | 65.1 µM | 81.4 µM | > 100 µM | 41.4 µM
O=[N+]([O-])c1ccc(Cl)c(C=NC23CC4CC(CC(C4)C2)C3)c1 | > 10 µM | > 10 µM | > 10 µM | > 10 µM | > 10 µM | > 10 µM | > 10 µM | > 10 µM | > 10 µM | > 10 µM | > 10 µM | > 10 µM | > 10 µM | > 10 µM | > 7.79 µM | > 10 µM | > 10 µM | > 10 µM | > 10 µM | > 10 µM
CNn1c(-c2ccccc2)n[nH]c1=O | > 100 µM | > 100 µM | > 100 µM | > 100 µM | > 100 µM | > 100 µM | > 100 µM | > 100 µM | > 100 µM | > 100 µM | > 100 µM | > 100 µM | > 100 µM | > 100 µM | > 100 µM | > 100 µM | > 100 µM | > 100 µM | > 100 µM | > 100 µM
